Experimental data taken from patent US7582639B2, “N-deacetylthiocolchicine derivatives, their use and pharmaceutical formulations containing them” (priority 2004, dated 2009).
Like-named read-outs stand apart in the source and are kept apart here.

Assays:
Experiment in all cases: cells
Format in all cases: cell-based
MCF7 (breast) = settings: after 72 hours, concentration that inhibits cell growth by 50% compared with non treated cells, read-out: IC50 (nM) ± S.E. MCF7 (breast)
Method: (§1) The activity of the compounds of formula I was evaluated on a large number of tumour cells expressing different resistance.
(§2) Cytotoxic activity was evaluated according to the procedure described by M. C.

[1] = system: A2780/top (resistant to topotecan); settings: after 72 hours, concentration that inhibits cell growth by 50% compared with non treated cells, read-out: IC50 (nM) ± S.E. A2780/top (resistant to topotecan)
Method: as §1, §2

Widr (colon) = settings: after 72 hours, concentration that inhibits cell growth by 50% compared with non treated cells, read-out: IC50 (nM) ± S.E. Widr (colon)
Method: as §1, §2

A2780/dx (Pgp+) = settings: after 72 hours, concentration that inhibits cell growth by 50% compared with non treated cells, read-out: IC50 (nM) ± S.E. A2780/dx (Pgp+)
Method: as §1, §2

[2] = system: A2780/pt (resistant to tocisplatin); settings: after 72 hours, concentration that inhibits cell growth by 50% compared with non treated cells, read-out: IC50 (nM) ± S.E. A2780/pt (resistant to tocisplatin)
Method: as §1, §2

MCF7-R (MDR+) = settings: after 72 hours, concentration that inhibits cell growth by 50% compared with non treated cells, read-out: IC50 (nM) ± S.E. MCF7-R (MDR+)
Method: as §1, §2

A2780 (Ovarian) = settings: after 72 hours, concentration that inhibits cell growth by 50% compared with non treated cells, read-out: IC50 (nM) ± S.E. A2780 (Ovarian)
Method: as §1, §2

Compound: COc1cc2c(c(OC)c1OC)-c1ccc(SC)c(=O)cc1[C@@H](NC(=O)c1cncc(C(=O)N[C@H]3CCc4cc(OC)c(OC)c(OC)c4-c4ccc(SC)c(=O)cc43)c1)CC2 [E.g. 1, 3,5-Pyridinedicarboxylic acid bis-(N-deacetylthiocolchicine)amide]
- IC50 (MCF7 (breast); Homo sapiens, MCF7): 0.7 ± 0.1 nM
- IC50 ([1]; Homo sapiens, A2780): 6.9 ± 4.2 nM
- IC50 (Widr (colon); Homo sapiens, WiDr): 25 ± 26.4 nM
- IC50 (A2780/dx (Pgp+)): 806 ± 286 nM
- IC50 ([2]; Homo sapiens, A2780): 3.7 ± 0.6 nM
- IC50 (MCF7-R (MDR+); Homo sapiens, MCF7R): 72 ± 4.3 nM
- IC50 (A2780 (Ovarian); Homo sapiens, A2780): 3 ± 0.4 nM

Compound: trans-1,4-Cyclohexanedicarboxylic acid bis-(N-deacetylthiocolchicine)amide [E.g. 2]
- IC50 (MCF7 (breast)): 14 ± 0.9 nM
- IC50 [1]: 32 ± 24 nM
- IC50 (Widr (colon)): 230 ± 166 nM
- IC50 [2]: 26 ± 1 nM
- IC50 (MCF7-R (MDR+)): 135 ± 11 nM
- IC50 (A2780 (Ovarian)): 37 ± 5 nM

Compound: 3,5-Benzenedicarboxylic acid bis-(N-deacetylthiocolchicine)amide [E.g. 3]
- IC50 (MCF7 (breast)): 1.5 ± 0.1 nM
- IC50 [1]: 5.5 ± 0.1 nM
- IC50 (Widr (colon)): 48 ± 24 nM
- IC50 [2]: 23 ± 4.6 nM
- IC50 (MCF7-R (MDR+)): 108 ± 14 nM
- IC50 (A2780 (Ovarian)): 8 ± 5.6 nM

Compound: N-Deacetylthiocolchicine 1,4-phenylenediamine bis-urea [E.g. 4]
- IC50 [1]: 152 ± 36 nM
- IC50 (Widr (colon)): 650 ± 40 nM
- IC50 [2]: 331 ± 63 nM
- IC50 (A2780 (Ovarian)): 252 ± 38 nM
